Assays:
narcotised guinea pigs = experiment: Blood pressure experiments on guinea pigs, i.v.; format: in vivo, guinea pig; settings: for blood pressure before: before administration
mongrel cats = experiment: Inotropic and heart-circulatory effectiveness on narcotised cats, intravenous; format: in vivo, cat; settings: 6 animals; for blood pressure before / dp/dt (inotropism) before / heart frequency before: before administration
[1] = Acute toxicity, intravenous, mice; format: in vivo; settings: mouse, in vivo; intravenous, within 24 hours; read-out: Evaluated LD50-range
female NMRI-albino mice = experiment: Acute toxicity, intravenous, mice; format: in vivo; settings: within 24 hours
[2] = test system: isolated guinea pig hearts; experiment: Experiments on Langendorff hearts (coronary flowthrough, inotropism, frequency); settings: Cavia porcellus, read-out: flowthrough, percentage change with regard to the initial value
Protocol: After reaching the stationary state in the 30th minute, the hearts were each perfused with 50 ml. tyrode solution with a content of test substance of, in each case, 25 μg./ml. Each test substance was tested on 3-6 hearts.
In each case, there was measured the inotropism, the flowthrough and the frequency, whereby the values given in Table I are average values of the percentage changes in comparison with the initial values.

SMILES: N#Cc1ccccc1OCC(O)CN[C@H]1CO[C@H]2[C@@H]1OC[C@@H]2O[N+](=O)[O-] (stereo partly drawn) [Example 50, 5-[2-Hydroxy-3-(2-cyanophenoxy)-propylamino]-5-desoxy-1.4;3.6-dianhydro-L-iditol 2-nitrate]
- blood pressure after (narcotised guinea pigs; 0.25 mg/kg i.v.): 39.25 ± 6.97 mm.Hg
- blood pressure Δ (narcotised guinea pigs; 0.25 mg/kg i.v.): -16.25 mm.Hg
- blood pressure before (narcotised guinea pigs; 0.25 mg/kg i.v.): 55.50 ± 7.35 mm.Hg
- blood pressure after (narcotised guinea pigs; 1.00 mg/kg i.v.): 31.00 ± 3.94 mm.Hg
- blood pressure Δ (narcotised guinea pigs; 1.00 mg/kg i.v.): -21.50 mm.Hg
- blood pressure after (narcotised guinea pigs; 2.50 mg/kg i.v.): 22.75 ± 1.80 mm.Hg
- blood pressure Δ (narcotised guinea pigs; 2.50 mg/kg i.v.): -27.75 mm.Hg
- blood pressure before (mongrel cats; 0.25 mg/kg i.v.): 121.0 mm.Hg
- dp/dt (inotropism) before (mongrel cats; 0.25 mg/kg i.v.): 6533 mm.Hg/sec
- heart frequency before (mongrel cats; 0.25 mg/kg i.v.): 190.7 min⁻¹
- blood pressure WD (mongrel cats; 0.25 mg/kg i.v.): 8.5 min
- blood pressure after (mongrel cats; 0.25 mg/kg i.v.): 108.3 mm.Hg
- blood pressure Δ (mongrel cats; 0.25 mg/kg i.v.): -12.7 mm.Hg
- dp/dt (inotropism) after (mongrel cats; 0.25 mg/kg i.v.): 6033 mm.Hg/sec
- dp/dt (inotropism) Δ (mongrel cats; 0.25 mg/kg i.v.): -500 mm.Hg/sec
- dp/dt WD (mongrel cats; 0.25 mg/kg i.v.): 8.2 min
- heart frequency after (mongrel cats; 0.25 mg/kg i.v.): 195.3 min⁻¹
- heart frequency Δ (mongrel cats; 0.25 mg/kg i.v.): +4.6 min^-1
- blood pressure WD (mongrel cats; 0.50 mg/kg i.v.): 9.8 min
- blood pressure after (mongrel cats; 0.50 mg/kg i.v.): 102.2 mm.Hg
- blood pressure Δ (mongrel cats; 0.50 mg/kg i.v.): -18.0 mm.Hg
- dp/dt (inotropism) after (mongrel cats; 0.50 mg/kg i.v.): 5133 mm.Hg/sec
- dp/dt (inotropism) Δ (mongrel cats; 0.50 mg/kg i.v.): -1267 mm.Hg/sec
- dp/dt WD (mongrel cats; 0.50 mg/kg i.v.): 8.2 min
- heart frequency after (mongrel cats; 0.50 mg/kg i.v.): 195.3 min⁻¹
- heart frequency Δ (mongrel cats; 0.50 mg/kg i.v.): +3.3 min^-1
- blood pressure WD (mongrel cats; 1.00 mg/kg i.v.): 14.8 min
- blood pressure after (mongrel cats; 1.00 mg/kg i.v.): 94.2 mm.Hg
- blood pressure Δ (mongrel cats; 1.00 mg/kg i.v.): -27.8 mm.Hg
- dp/dt (inotropism) after (mongrel cats; 1.00 mg/kg i.v.): 4200 mm.Hg/sec
- dp/dt (inotropism) Δ (mongrel cats; 1.00 mg/kg i.v.): -2067 mm.Hg/sec
- dp/dt WD (mongrel cats; 1.00 mg/kg i.v.): 14.8 min
- heart frequency after (mongrel cats; 1.00 mg/kg i.v.): 191.7 min⁻¹
- heart frequency Δ (mongrel cats; 1.00 mg/kg i.v.): 0 min⁻¹
- blood pressure WD (mongrel cats; 2.50 mg/kg i.v.): > 10 min
- blood pressure after (mongrel cats; 2.50 mg/kg i.v.): 77.5 mm.Hg
- blood pressure Δ (mongrel cats; 2.50 mg/kg i.v.): -45.8 mm.Hg
- dp/dt (inotropism) after (mongrel cats; 2.50 mg/kg i.v.): 2733 mm.Hg/sec
- dp/dt (inotropism) Δ (mongrel cats; 2.50 mg/kg i.v.): -3584 mm.Hg/sec
- dp/dt WD (mongrel cats; 2.50 mg/kg i.v.): > 10 min
- heart frequency after (mongrel cats; 2.50 mg/kg i.v.): 178.7 min⁻¹
- heart frequency Δ (mongrel cats; 2.50 mg/kg i.v.): -10.3 min⁻¹
- LD50 at 24 h [1]: 100 to 200 mg/kg
- Frequency of death (female NMRI-albino mice; 100 mg/kg i.v.): 0/3
- Frequency of death (female NMRI-albino mice; 200 mg/kg i.v.): 4/6

SMILES: O=[N+]([O-])O[C@H]1CO[C@H]2[C@@H]1OC[C@H]2NCC(O)COc1cccc2ccccc12 (stereo partly drawn) [Example 55, 5-[2-Hydroxy-3-(1-naphthyloxy)-propylamino]-5-desoxy-1.4;3.6-dianhydro-D-glucitol 2-nitrate]
- blood pressure before (mongrel cats; 0.25 mg/kg i.v.): 113.8 mm.Hg
- dp/dt (inotropism) before (mongrel cats; 0.25 mg/kg i.v.): 5633 mm.Hg/sec
- heart frequency before (mongrel cats; 0.25 mg/kg i.v.): 161.7 min⁻¹
- blood pressure WD (mongrel cats; 0.25 mg/kg i.v.): 4.8 min
- blood pressure after (mongrel cats; 0.25 mg/kg i.v.): 107.0 mm.Hg
- blood pressure Δ (mongrel cats; 0.25 mg/kg i.v.): -6.8 mm.Hg
- dp/dt (inotropism) after (mongrel cats; 0.25 mg/kg i.v.): 5200 mm.Hg/sec
- dp/dt (inotropism) Δ (mongrel cats; 0.25 mg/kg i.v.): -433 mm.Hg/sec
- dp/dt WD (mongrel cats; 0.25 mg/kg i.v.): 4.2 min
- heart frequency after (mongrel cats; 0.25 mg/kg i.v.): 164.7 min⁻¹
- heart frequency Δ (mongrel cats; 0.25 mg/kg i.v.): +3.0 min^-1
- blood pressure WD (mongrel cats; 0.50 mg/kg i.v.): 2.8 min
- blood pressure after (mongrel cats; 0.50 mg/kg i.v.): 98.8 mm.Hg
- blood pressure Δ (mongrel cats; 0.50 mg/kg i.v.): -12.7 mm.Hg
- dp/dt (inotropism) after (mongrel cats; 0.50 mg/kg i.v.): 4667 mm.Hg/sec
- dp/dt (inotropism) Δ (mongrel cats; 0.50 mg/kg i.v.): -533 mm.Hg/sec
- dp/dt WD (mongrel cats; 0.50 mg/kg i.v.): 5.2 min
- heart frequency after (mongrel cats; 0.50 mg/kg i.v.): 157.3 min⁻¹
- heart frequency Δ (mongrel cats; 0.50 mg/kg i.v.): +2.0 min^-1
- blood pressure WD (mongrel cats; 1.00 mg/kg i.v.): 5.2 min
- blood pressure after (mongrel cats; 1.00 mg/kg i.v.): 96.8 mm.Hg
- blood pressure Δ (mongrel cats; 1.00 mg/kg i.v.): -18.2 mm.Hg
- dp/dt (inotropism) after (mongrel cats; 1.00 mg/kg i.v.): 4000 mm.Hg/sec
- dp/dt (inotropism) Δ (mongrel cats; 1.00 mg/kg i.v.): -1117 mm.Hg/sec
- dp/dt WD (mongrel cats; 1.00 mg/kg i.v.): 8.9 min
- heart frequency after (mongrel cats; 1.00 mg/kg i.v.): 154.0 min⁻¹
- heart frequency Δ (mongrel cats; 1.00 mg/kg i.v.): -1.3 min⁻¹
- blood pressure WD (mongrel cats; 2.50 mg/kg i.v.): 6.3 min
- blood pressure after (mongrel cats; 2.50 mg/kg i.v.): 94.3 mm.Hg
- blood pressure Δ (mongrel cats; 2.50 mg/kg i.v.): -26.0 mm.Hg
- dp/dt (inotropism) after (mongrel cats; 2.50 mg/kg i.v.): 3517 mm.Hg/sec
- dp/dt (inotropism) Δ (mongrel cats; 2.50 mg/kg i.v.): -1266 mm.Hg/sec
- dp/dt WD (mongrel cats; 2.50 mg/kg i.v.): > 7.8 min
- heart frequency after (mongrel cats; 2.50 mg/kg i.v.): 148.0 min⁻¹
- heart frequency Δ (mongrel cats; 2.50 mg/kg i.v.): 0 min⁻¹
- activation at 25 µg/mL [2]: 203%

SMILES: COc1ccc(CCCN[C@H]2CO[C@H]3[C@@H]2OC[C@@H]3O[N+](=O)[O-])cc1OC [31 b]
- activation at 25 µg/mL [2]: 79.4%

SMILES: CN(CC=Cc1ccccc1)[C@H]1CO[C@H]2[C@@H]1OC[C@@H]2O[N+](=O)[O-] [Example 24, 5-(N-Cinnamyl-N-methylamino)-5-desoxy-1.4;3.6-dianhydro-L-iditol 2-nitrate]
- activation at 25 µg/mL [2]: 200%

SMILES: CC(=O)N[C@H]1CO[C@H]2[C@@H]1OC[C@@H]2O[N+](=O)[O-] [Example 6, 5-Acetylamino-5-desoxy-1.4;3.6-dianhydro-L-iditol 2-nitrate]
- blood pressure after (narcotised guinea pigs; 0.25 mg/kg i.v.): 63.75 ± 7.32 mm.Hg
- blood pressure Δ (narcotised guinea pigs; 0.25 mg/kg i.v.): -7.00 mm.Hg
- blood pressure before (narcotised guinea pigs; 0.25 mg/kg i.v.): 70.75 ± 6.36 mm.Hg
- blood pressure after (narcotised guinea pigs; 1.00 mg/kg i.v.): 55.75 ± 7.94 mm.Hg
- blood pressure Δ (narcotised guinea pigs; 1.00 mg/kg i.v.): -14.50 mm.Hg
- blood pressure after (narcotised guinea pigs; 2.50 mg/kg i.v.): 47.75 ± 5.88 mm.Hg
- blood pressure Δ (narcotised guinea pigs; 2.50 mg/kg i.v.): -17.75 mm.Hg
- LD50 at 24 h [1]: > 200 mg/kg
- Frequency of death (female NMRI-albino mice; 200 mg/kg i.v.): 0/3

SMILES: CN(CCCCCc1ccccc1)[C@H]1CO[C@H]2[C@@H]1OC[C@@H]2O[N+](=O)[O-] [Example 23, 5-[N-Methyl-N-(5-phenylpentyl)-amino]-5-desoxy-1.4;3.6-dianhydro-L-iditol 2-nitrate]
- activation at 25 µg/mL [2]: 156%

SMILES: CN(CCc1ccccc1)[C@H]1CO[C@H]2[C@@H]1OC[C@@H]2O[N+](=O)[O-] [Example 20, 5-[N-(2-Phenylethyl)-N-methylamino]-5-desoxy-1.4;3.6-dianhydro-L-iditol 2-nitrate]
- activation at 25 µg/mL [2]: 66.9%

SMILES: O=[N+]([O-])O[C@H]1CO[C@H]2[C@@H]1OC[C@@H]2NC12CC3CC(CC(C3)C1)C2 [11 b]
- activation at 25 µg/mL [2]: 145%

SMILES: O=[N+]([O-])O[C@H]1CO[C@H]2[C@@H]1OC[C@@H]2NCCCOc1ccccc1 [Example 36, 5-(3-Phenoxypropylamino)-5-desoxy-1.4;3.6-dianhydro-L-iditol 2-nitrate]
- blood pressure before (mongrel cats; 0.25 mg/kg i.v.): 114.5 mm.Hg
- dp/dt (inotropism) before (mongrel cats; 0.25 mg/kg i.v.): 7933 mm.Hg/sec
- heart frequency before (mongrel cats; 0.25 mg/kg i.v.): 200.3 min⁻¹
- blood pressure WD (mongrel cats; 0.25 mg/kg i.v.): 5.1 min
- blood pressure after (mongrel cats; 0.25 mg/kg i.v.): 97.7 mm.Hg
- blood pressure Δ (mongrel cats; 0.25 mg/kg i.v.): -19.8 mm.Hg
- dp/dt (inotropism) after (mongrel cats; 0.25 mg/kg i.v.): 7433 mm.Hg/sec
- dp/dt (inotropism) Δ (mongrel cats; 0.25 mg/kg i.v.): -500 mm.Hg/sec
- dp/dt WD (mongrel cats; 0.25 mg/kg i.v.): 3.3 min
- heart frequency after (mongrel cats; 0.25 mg/kg i.v.): 204.3 min⁻¹
- blood pressure WD (mongrel cats; 0.50 mg/kg i.v.): 8.5 min
- blood pressure after (mongrel cats; 0.50 mg/kg i.v.): 84.5 mm.Hg
- blood pressure Δ (mongrel cats; 0.50 mg/kg i.v.): -28.0 mm.Hg
- dp/dt (inotropism) after (mongrel cats; 0.50 mg/kg i.v.): 6650 mm.Hg/sec
- dp/dt (inotropism) Δ (mongrel cats; 0.50 mg/kg i.v.): -1183 mm.Hg/sec
- dp/dt WD (mongrel cats; 0.50 mg/kg i.v.): 7.9 min
- heart frequency after (mongrel cats; 0.50 mg/kg i.v.): 200.3 min⁻¹
- heart frequency Δ (mongrel cats; 0.50 mg/kg i.v.): -3.7 min⁻¹
- blood pressure WD (mongrel cats; 1.00 mg/kg i.v.): 14.8 min
- blood pressure after (mongrel cats; 1.00 mg/kg i.v.): 74.3 mm.Hg
- blood pressure Δ (mongrel cats; 1.00 mg/kg i.v.): -42.5 mm.Hg
- dp/dt (inotropism) after (mongrel cats; 1.00 mg/kg i.v.): 5467 mm.Hg/sec
- dp/dt (inotropism) Δ (mongrel cats; 1.00 mg/kg i.v.): -2416 mm.Hg/sec
- dp/dt WD (mongrel cats; 1.00 mg/kg i.v.): 19.0 min
- heart frequency after (mongrel cats; 1.00 mg/kg i.v.): 194.3 min⁻¹
- heart frequency Δ (mongrel cats; 1.00 mg/kg i.v.): -8.0 min⁻¹
- blood pressure WD (mongrel cats; 2.50 mg/kg i.v.): > 10 min
- blood pressure after (mongrel cats; 2.50 mg/kg i.v.): 62.5 mm.Hg
- blood pressure Δ (mongrel cats; 2.50 mg/kg i.v.): -58.3 mm.Hg
- dp/dt (inotropism) after (mongrel cats; 2.50 mg/kg i.v.): 4000 mm.Hg/sec
- dp/dt (inotropism) Δ (mongrel cats; 2.50 mg/kg i.v.): -3883 mm.Hg/sec
- dp/dt WD (mongrel cats; 2.50 mg/kg i.v.): 10 min
- heart frequency after (mongrel cats; 2.50 mg/kg i.v.): 175.3 min⁻¹
- heart frequency Δ (mongrel cats; 2.50 mg/kg i.v.): -22.4 min⁻¹
- LD50 at 24 h [1]: 50 to 100 mg/kg
- Frequency of death (female NMRI-albino mice; 50 mg/kg i.v.): 0/3
- Frequency of death (female NMRI-albino mice; 100 mg/kg i.v.): 5/6

SMILES: O=[N+]([O-])O[C@H]1CO[C@H]2[C@@H]1OC[C@@H]2NCCc1ccccc1 [Example 27, 5-(2-Phenylethylamino)-5-desoxy-1.4;3.6-dianhydro-L-iditol 2-nitrate]
- activation at 25 µg/mL [2]: 67.2%

— patent US4363805A, “Aminodesoxy-1.4;3.6-dianhydrohexitol nitrates and pharmaceutical composition” (Firma Willmar Schwabe, priority 1980, dated 1982)
